# Assay results as given in ChEMBL document CHEMBL6103613 (J Med Chem, 2025).
# The source made the active and inactive calls. The calls are words filed in the database; no cut-off is given here.
# Experiments:
# [1] = Therapeutic index, ratio of HC5 for hemolytic activity in mouse Red blood cell to MIC for antimicrobial activity against Staphylococcus aureus ATCC 25923 assessed as inhibition of visible bacterial growth; format: toxicity, cell-based, RBC; conditions: red blood cells, read-out: TI
# [2] = tested on: Peptidoglycan; assay: Binding affinity to Staphylococcus aureus peptidoglycan assessed as change in entropy by ITC analysis
# [3] = tested on: Staphylococcus epidermidis; assay: Antimicrobial activity against Staphylococcus epidermidis ATCC 12228 assessed as inhibition of visible bacterial growth incubated for 18 hrs by CLSI based analysis; format: functional
# [4] = tested on: Cell membrane; assay: Induction of cell membrane depolarization in Staphylococcus aureus assessed as increase in fluorescence intensity at 1 to 8 times MIC by DiOC2 (3) dye based assay; format: subcellular
# [5] = Toxicity in mouse assessed as spleen damage at 50 mg/kg, ip measured for 7 days by H and E staining based analysis; format: organism-based; conditions: in vivo, 168 h, time 7 day
# [6] = Toxicity in mouse assessed as change in water intake at 50 mg/kg, ip measured for 7 days; format: organism-based; conditions: in vivo, 168 h, time 7 day
# [7] = tested on: Staphylococcus aureus; assay: Antimicrobial activity against Staphylococcus aureus ATCC 25923 incubated for 1 hr in presence of PGN; format: functional
# [8] = Toxicity in mouse assessed as organ damage by measuring thickened alveolar wall in lungs at 5 mg/kg, ip measured upto 8 days; format: organism-based; conditions: in vivo, 192 h, time < 8 day
# [9] = tested on: Staphylococcus aureus; assay: Antibacterial activity against methicillin-resistant Staphylococcus aureus infected in kunming mouse peritonitis model assessed as reduction in bacterial colonies in lung at 5 mg/kg, ip measured upto 8 days; format: functional, organism-based; conditions: time <= 8.0 day
# [10] = Toxicity in mouse assessed as signs of drowsiness at 50 mg/kg, ip measured for 7 days; format: organism-based; conditions: in vivo, 168 h, time 7 day
# [11] = tested on: Staphylococcus aureus; assay: Antimicrobial activity against Staphylococcus aureus at 100 degreeC incubated for 0.5 hrs; format: functional, organism-based
# [12] = tested on: Cell membrane; assay: Disruption of cell membrane integrity in Staphylococcus aureus at 4 times of MIC incubated upto 20 mins by fluorescence microscopic analysis; format: subcellular
# [13] = tested on: Staphylococcus aureus; assay: Antimicrobial activity against Staphylococcus aureus assessed as inhibition of visible bacterial growth incubated for 18 hrs by CLSI based analysis; format: functional
# [14] = tested on: Staphylococcus aureus; assay: Antibacterial activity against methicillin-resistant Staphylococcus aureus infected in kunming mouse pneumonia model assessed as decrease in IL-6 expression in lung at 5 mg/kg, ip measured upto 8 days; format: functional, organism-based; conditions: time <= 8.0 day
# [15] = Toxicity in mouse assessed as change in behavior at 50 mg/kg, ip measured for 7 days; format: organism-based; conditions: in vivo, 168 h, time 7 day
# [16] = tested on: Candida albicans; assay: Antifungal activity against Candida albicans assessed as reduction in fungal growth incubated for 18 hrs by CLSI based analysis; format: functional
# [17] = tested on: Staphylococcus aureus; assay: Antimicrobial activity against Staphylococcus aureus ATCC 25923 assessed as inhibition of visible bacterial growth incubated for 18 hrs by CLSI based analysis; format: functional
# [18] = tested on: Enterococcus faecalis; assay: Antimicrobial activity against Enterococcus faecalis ATCC 19433 assessed as inhibition of visible bacterial growth incubated for 18 hrs by CLSI based analysis; format: functional
# [19] = tested on: Cell membrane; assay: Disruption of cell membrane integrity in Staphylococcus aureus at 4 times of MIC incubated for 1 mins by Propidium iodide staining based analysis; format: subcellular
# [20] = tested on: Staphylococcus aureus; assay: Upregulation of catalase expression in Staphylococcus aureus at 12.5 microg/ml incubated for 3 hrs by RNA sequencing analysis; format: functional, organism-based; conditions: dose 12.5 µg/ml
# [21] = Toxicity in mouse assessed as change in bowel movement intake at 50 mg/kg, ip measured for 7 days; format: organism-based; conditions: in vivo, 168 h, time 7 day
# [22] = tested on: RAW264.7; assay: Cytotoxicity against mouse RAW264.7 cells assessed as cell viability at 6.25 to 100 microg/ml incubated for 24 hrs by MTT assay; format: toxicity, cell-based; conditions: raw264.7, 24 h
# [23] = tested on: Staphylococcus aureus; assay: Induction of ROS production in Staphylococcus aureus assessed as increase in fluorescence intensity at 4 times MIC by DCFH-DA probe based assay; format: functional, organism-based
# [24] = tested on: Staphylococcus aureus; assay: Upregulation of dltB expression in Staphylococcus aureus at 12.5 microg/ml incubated for 3 hrs by RNA sequencing analysis; format: functional; conditions: dose 12.5 µg/ml
# [25] = tested on: Bacillus subtilis; assay: Antimicrobial activity against Bacillus subtilis ATCC 23875 assessed as inhibition of visible bacterial growth incubated for 18 hrs by CLSI based analysis; format: functional
# [26] = tested on: Escherichia coli; assay: Antimicrobial activity against Escherichia coli assessed as inhibition of visible bacterial growth incubated for 18 hrs by CLSI based analysis; format: functional
# [27] = tested on: Staphylococcus aureus; assay: Upregulation of LiaF expression in Staphylococcus aureus at 12.5 microg/ml incubated for 3 hrs by RNA sequencing analysis; format: functional; conditions: dose 12.5 µg/ml
# [28] = Toxicity in mouse assessed as survival rate at 50 mg/kg, ip measured for 7 days; format: organism-based; conditions: in vivo, time 7 day
# [29] = tested on: Staphylococcus aureus; assay: Antibiofilm activity in Staphylococcus aureus assessed as biofilm eradication at 8 times MIC relative to control; format: functional
# [30] = Hemolytic activity against mouse Red blood cell incubated for 1 hr; format: toxicity, cell-based; conditions: erythrocyte
# [31] = tested on: Staphylococcus aureus; assay: Upregulation of ahpC6 expression in Staphylococcus aureus at 12.5 microg/ml incubated for 3 hrs by RNA sequencing analysis; format: functional; conditions: dose 12.5 µg/ml
smiles,measurement,setting,value
CC(C)[C@@H]1NC(=O)[C@@H](C(C)C)NC(=O)[C@H](C(C)C)NC(=O)[C@@H](CCCCN)NC(=O)[C@H](Cc2c(C(c3ccccc3)(c3ccccc3)c3ccccc3)[nH]c3ccccc23)NC(=O)[C@@H](C(C)C)NC(=O)[C@@H]2CSC1N2,selectivity ratio,[1],> 16
same,TdeltaS,[2],7.55 kcal/mol
same,MIC,[3],6.25 µg/mL
same,Activity,[4],Dose-dependent-effect
same,Activity,[5],Non-toxic
same,Activity,[6],Non-toxic
same,MIC,[7],> 50 µg/mL
same,Activity,[8],Non-toxic
same,Activity,[9],Active
same,Activity,[10],Non-toxic
same,Activity,[11],Active
same,Activity,[12],Active
same,MIC,[13],3.13 µg/mL
same,Activity,[14],Active
same,Activity,[15],Non-toxic
same,MIC,[16],3.13 µg/mL
same,MIC,[17],6.25 µg/mL
same,MIC,[18],12.5 µg/mL
same,Activity,[19],26.2%
same,Activity,[20],Active
same,Activity,[21],Non-toxic
same,Activity,[22],Non-toxic
same,Activity,[23],Active
same,Activity,[24],Active
same,MIC,[25],6.25 µg/mL
same,MIC,[26],3.13 µg/mL
same,Activity,[27],Active
same,survival at 168 h,[28],100%
same,Activity,[29],90%
same,HC5,[30],> 100 µg/mL
same,Activity,[31],Active
